From patent US10660933B2, “Compositions and methods for inhibition of bacterial infections in human endocervix” (priority 2015, dated 2020) come the findings set out here.

One assay deals with cytoplasmic Ca2+. The assay can be described thus: Calcium imaging of Ng-inoculated polarized epithelial cells (FluoForte, Fluo-4). The format is cell-based, human. Particulars: MS11Opa+ and MS11ΔOpa-inoculated polarized epithelial cells, 4 h; 2APB 10 μM, BAPTA 50 μM. The source says: Ng inoculation induces Ca^2+-dependent redistribution of active NMII in polarized epithelial cells. A major upstream signaling molecule of MLCK is calmodulin that is activated by Ca^2+. To investigate if Ca^2+ is involved in Ng induced redistribution of active NMII, we determined if Ng inoculation would induce Ca^2+ flux in polarized epithelial cells. We used two Ca^2+ indicators, FluoForte (FIGS. 7A and 7B) and Fluo-4 (FIG. 11) to determine the cytoplasmic Ca^2+ level. Polarized T84 (FIGS. 7A and 7B, and FIG. 11A and FIG. 11B) and HEC-1-B (FIG. 11C and FIG. 11D) were incubated apically with MS11Opa+ or MS11ΔOpa for 4 h. The cells were then loaded with the fluorescent Ca^2+ indicator, and the cell membrane marked by the membrane dye CellMask. Cells were imaged using 3D-CFM (FIG. 7A, and FIGS. 11A and 11C). The mean fluorescence intensity (MFI) of the Ca^2+ dyes in individual cells was measured to estimate the cytoplasmic level of Ca^2+ (FIG. 7B, and FIGS. 11B and 11D). […]
Calcium imaging. […] To quantify the intracellular Ca^2+ level, the cytoplasmic region of individual cells was manually selected based on the CellMask staining in randomly acquired confocal images, and the mean fluorescent intensity (MFI) of Fluoforte and Fluo-4 in the cytoplasmic region was measured using the NIH ImageJ software.

The next assay deals with ZO1. The assay can be described thus: ZO1 distribution and cell morphology in Ng-infected human endocervical tissue explants. The format is cell-based. The note with it: MS11ΔOpa 24 h, ML-7 10 μM. The source says: We determined if MS11ΔOpa can induce the disruption of the apical junction in human endocervical tissue. Sections of uninfected and infected tissue explants were stained for the junctional protein ZO1, Ng, and DNA and analyzed by 3D-CFM (FIG. 4G). We quantified junction disruption by determining the percentage of Ng associated epithelial cells that lost continuous apical staining of ZO1, using 3D reconstituted confocal images (FIG. 4G, right panels). […] In contrast to the recruitment of ZO1 to epithelial cells neighboring exfoliating cells in uninfected monolayers, no accumulation of ZO1 staining was observed around Ng infected exfoliating cells (FIG. 4I, arrows). […] Treatment with the MLCK inhibitor ML-7 restored both the morphology (FIG. 4G left panels) and apical distribution of ZO1 (FIG. 4H).
Immunofluorescence analysis of human endocervical tissue explants. […] The tissue was fixed, embedded in gelatin, cryopreserved, sectioned crossing the apical and basolateral surfaces of the epithelium, stained for ZO1 (BD Bioscience), pMLC (Cell Signaling Technology, Beverly, Mass.), and Ng (51) by specific antibodies, and nuclei by DAPI (Life Technologies, Carlsbad, Calif.), and analyzed using CFM (Zeiss LSM 710, Carl Zeiss Microscopy LLC, Oberkochen, Germany). […]

In the case of `NCCOB(c1ccccc1)c1ccccc1` [2APB], the “MFI of the Ca2+ indicators (cytoplasmic Ca2+ level)” value with cytoplasmic Ca2+ was “back to the basal level”. Consider `O=S(=O)(c1cccc2c(I)cccc12)N1CCCNCC1` [ML-7], for which, in the assay on ZO1, the “apical distribution of ZO1” value was “restored” and the “morphology of endocervical epithelial cells” value is “restored”.
